What was measured:
hD3R = hD3R (Homo sapiens, UniProt P35462); assay: Radioligand competition binding vs [3H]-; settings: for Ki: D3R Ki ± SEM, HEK293 cells stably expressing hD3R
hD2R = hD2R (Homo sapiens, UniProt P14416); assay: Radioligand competition binding vs [3H]-; settings: vs. [3H]-(R)-(+)-7-OH-DPAT; for Ki: D2R Ki ± SEM, HEK293 cells stably expressing hD2R
[1] = drug self-administration and drug discrimination, rats; cited from earlier work
D3R = D3R (Homo sapiens, UniProt P35462); settings: cited from earlier work
Sequence of D3R (P35462 whole entry): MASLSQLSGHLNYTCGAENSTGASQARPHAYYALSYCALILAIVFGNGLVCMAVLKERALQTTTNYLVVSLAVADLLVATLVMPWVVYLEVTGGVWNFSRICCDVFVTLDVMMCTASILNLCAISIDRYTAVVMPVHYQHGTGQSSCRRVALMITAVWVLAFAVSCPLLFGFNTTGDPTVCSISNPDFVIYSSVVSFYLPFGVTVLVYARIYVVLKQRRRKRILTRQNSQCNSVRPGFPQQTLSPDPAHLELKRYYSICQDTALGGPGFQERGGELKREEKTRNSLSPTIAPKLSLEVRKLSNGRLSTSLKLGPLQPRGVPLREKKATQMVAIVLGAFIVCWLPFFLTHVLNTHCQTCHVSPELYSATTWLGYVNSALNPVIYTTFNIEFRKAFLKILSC

[2] = Table 2, vs. [3H]-(R)-(+)-7-OH-DPAT
[3] = Table 1, vs. [3H]-(R)-(+)-7-OH-DPAT

Sequence of hD3R (P35462 whole entry): as above
Sequence of hD2R (P14416 whole entry): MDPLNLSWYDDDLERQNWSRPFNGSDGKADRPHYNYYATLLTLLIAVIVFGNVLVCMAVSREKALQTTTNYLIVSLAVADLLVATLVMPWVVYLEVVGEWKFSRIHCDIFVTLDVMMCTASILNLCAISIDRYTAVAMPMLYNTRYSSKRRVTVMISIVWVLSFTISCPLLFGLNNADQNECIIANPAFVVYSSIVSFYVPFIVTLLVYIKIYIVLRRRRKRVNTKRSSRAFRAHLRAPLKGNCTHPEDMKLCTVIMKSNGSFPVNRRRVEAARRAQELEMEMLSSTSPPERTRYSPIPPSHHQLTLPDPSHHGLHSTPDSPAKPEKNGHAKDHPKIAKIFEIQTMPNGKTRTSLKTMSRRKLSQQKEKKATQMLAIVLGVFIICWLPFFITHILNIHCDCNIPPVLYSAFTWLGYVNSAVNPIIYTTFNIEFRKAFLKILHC

C[C@H]1CO[C@H](c2ccc(N)nc2)CN1CC1CC1CNC(=O)c1cc2ccccc2[nH]1 (stereo partly drawn) [Compound 39a, cis-N-((2-(((2R,5S)-2-(6-aminopyridin-3-yl)-5-methylmorpholino)methyl)cyclopropyl)methyl)-1H-indole-2-carboxamide] showed a Ki (hD3R; [2]) of 26.2 µM.

For CCCN[C@H]1CCc2nc(N)sc2C1 [Pramipexole, reference compound], the Ki (hD3R; [3]) was 0.00169 µM.

With CCc1cc(Cl)c(OC)c(N2CCN(CCCCOc3ccc4c(c3)NC(=O)CC4)CC2)c1 [Compound 57, 7-(4-(4-(3-chloro-5-ethyl-2-methoxyphenyl)piperazin-1-yl)butoxy)-3,4-dihydroquinolin-2(1H)-one] the “selectivity for D2R over D3R” value (hD2R) was 22 fold.

C[C@H]1CO[C@@H](c2ccc(N)nc2)CN1CC1CC1CNC(=O)c1cc2ccccc2[nH]1 (stereo partly drawn) [Compound 38a, cis-N-((2-(((2S,5S)-2-(6-aminopyridin-3-yl)-5-methylmorpholino)methyl)cyclopropyl)methyl)-1H-indole-2-carboxamide] gave a Ki (hD2R; Table 2) of 1.07 µM and a Ki (hD3R; [2]) of 2.15 µM.

In the case of O=C(NCCCCNC1COc2ccc(O)cc2C1=O)c1cc2ccccc2[nH]1 (stereo not shown) [Compound 19a, N-(4-((6-hydroxy-4-oxochroman-3-yl)amino)butyl)-1H-indole-2-carboxamide], the Ki (hD3R; [3]) is reported as 0.354 ± 0.0451 µM and the “reduced affinity (loss of affinity) at both D2R and D3R relative to parent 1” value (hD3R; vs. [3H]-(R)-(+)-7-OH-DPAT) is reported as 100–1,000 fold.

With C[C@H]1CO[C@@H](c2ccc(N)nc2)CN1CC1CC1CNC(=O)c1cc2ccccc2[nH]1 (stereo partly drawn) [Compound 37a, trans-N-((2-(((2S,5S)-2-(6-aminopyridin-3-yl)-5-methylmorpholino)methyl)cyclopropyl)methyl)-1H-indole-2-carboxamide] the “selectivity for D2R over D3R” value (hD2R) was ~ 5 fold and the Ki (hD3R; [2]) was 1.19 µM.

C[C@H]1CO[C@@H](c2ccc(N)nc2)CN1CC1CC1CNC(=O)c1cc2ccccc2[nH]1 (stereo partly drawn) [Compound 37b, trans-N-((2-(((2S,5S)-2-(6-aminopyridin-3-yl)-5-methylmorpholino)methyl)cyclopropyl)methyl)-1H-indole-2-carboxamide] showed a Ki (hD2R; Table 2) of 0.707 ± 0.0198 µM and a Ki (hD3R; [2]) of 0.404 ± 0.034 µM.

C[C@H]1CO[C@@H](c2ccc(N)nc2)CN1CC1CC1CNC(=O)c1cc2ccccc2[nH]1 (stereo partly drawn) [Compound 38b, cis-N-((2-(((2S,5S)-2-(6-aminopyridin-3-yl)-5-methylmorpholino)methyl)cyclopropyl)methyl)-1H-indole-2-carboxamide] gave a Ki (hD2R; Table 2) of 0.12 ± 0.0166 µM and a Ki (hD3R; [2]) of 0.276 ± 0.03 µM.

In the case of CCCN1CC(c2ccc(N)nc2)OC[C@@H]1C (stereo partly shown) [Compound 2], the abuse potential [1] is given as “lack of abuse potential”.

Molecule CCCN(CCC)c1ccc(C2CN(CCC)[C@@H](C)CO2)cn1 (stereo partly drawn) [Compound 20, 5-((5S)-5-methyl-4-propylmorpholin-2-yl)-N,N-dipropylpyridin-2-amine] has a D4R/D3R (hD3R; Table 2, ratio of Ki values vs. [3H]-(R)-(+)-7-OH-DPAT) greater than 4.74.

For CCCN1CCO[C@@H]2c3cc(O)ccc3OC[C@H]21 [Compound 1, (4aR,10bR)-4-propyl-3,4,4a,10b-tetrahydro-2H,5H-chromeno[4,3-b][1,4]oxazin-9-ol], the “D3R over D2R selectivity” value (D3R) is given as ~ 10 fold.

With Oc1ccc2c(c1)[C@H]1OCCN[C@@H]1CO2 [Compound 15, (4aR,10bR)-3,4,4a,10b-tetrahydro-2H,5H-chromeno[4,3-b][1,4]oxazin-9-ol] the “reduced affinity (loss of affinity) at both D2R and D3R relative to parent 1” value (hD3R; vs. [3H]-(R)-(+)-7-OH-DPAT) was greater than 200 fold and the “selectivity for D3R over D2R” value (hD3R; vs. [3H]-(R)-(+)-7-OH-DPAT) was 10 fold.

With O=C(NCCCCNC1COc2ccc(O)cc2C1=O)c1cc2ccccc2[nH]1 (stereo not shown) [Compound 19b, N-(4-((6-hydroxy-4-oxochroman-3-yl)amino)butyl)-1H-indole-2-carboxamide] the Ki (hD2R; Table 1) was 1.43 µM, the Ki (hD3R; [3]) was 1.77 µM and the “reduced affinity (loss of affinity) at both D2R and D3R relative to parent 1” value (hD3R; vs. [3H]-(R)-(+)-7-OH-DPAT) was 100–1,000 fold.

In the case of CCCN(CCC)C1CCc2ccc(O)cc2C1 (stereo not shown) [Compound 7-OH-DPAT, 7-Hydroxy-N,N-dipropyl-2-aminotetralin], the “D3R over D2R selectivity” value (D3R) is listed as ~ 10 fold.

For C[C@H]1CO[C@@H](c2ccc(N)nc2)CN1CCCCOc1ccc2c(c1)NC(=O)CC2 [Compound 26, 7-(4-((2S,5S)-2-(6-aminopyridin-3-yl)-5-methylmorpholino)butoxy)-3,4-dihydroquinolin-2(1H)-one], the “higher D3R affinity compared to its (2R,5S) diastereoisomer” value (hD3R; 27 vs 25, 26 vs 24, vs. [3H]-(R)-(+)-7-OH-DPAT) was 775 fold.

C[C@H]1CO[C@H](c2ccc(N)nc2)CN1CC1CC1CNC(=O)c1cc2ccccc2[nH]1 (stereo partly drawn) [Compound 39b, cis-N-((2-(((2R,5S)-2-(6-aminopyridin-3-yl)-5-methylmorpholino)methyl)cyclopropyl)methyl)-1H-indole-2-carboxamide] showed a Ki (hD2R; Table 2) of 7.73 µM and a Ki (hD3R; [2]) of 32.9 µM.

Reference: PMC8272914 (Journal of medicinal chemistry, 2019)
